Assay results: ChEMBL document CHEMBL1201862, “PubChem BioAssay data set” (2004)
Activity calls are given as the source filed them.

Key:
[1] = reduction of Shn3 3'UTR-driven luciferase in osteoblasts – cell-based, Clone20 osteoblasts, firefly luciferase, cherry-picked, dose response (AID 624132); type: functional;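 also: firefly luciferase luminescence from reporter carrying the Shn3 3'UTR in osteoblasts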
[2] = Trypanosoma cruzi growth suppression in host cells – NIH3T3 host cells, beta-gal luminescence, confirmation (AID 2044); type: functional, cell-based;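 also: intracellular parasites grown in NIH/3T3 mouse fibroblasts as host cells; luminescent beta-galactosidase reporter signal from transgenic T. cruzi replicating inside host cells; inhibitors lower the luminescence signal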
[3] = NIH3T3 cell viability loss – ATP luminescence, mouse fibroblasts, counter-screen, dose response (AID 2010); type: functional, cell-based;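 also: cells exposed to compound for about 90 hours before reading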
Cytochrome P450 1A2 = target: T1, Cytochrome P450 1A2 (Homo sapiens, UniProt P05177);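 also: PubChem cytochrome P450 panel assay, CYP1A2 panel member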
T1 sequence (P05177 whole entry): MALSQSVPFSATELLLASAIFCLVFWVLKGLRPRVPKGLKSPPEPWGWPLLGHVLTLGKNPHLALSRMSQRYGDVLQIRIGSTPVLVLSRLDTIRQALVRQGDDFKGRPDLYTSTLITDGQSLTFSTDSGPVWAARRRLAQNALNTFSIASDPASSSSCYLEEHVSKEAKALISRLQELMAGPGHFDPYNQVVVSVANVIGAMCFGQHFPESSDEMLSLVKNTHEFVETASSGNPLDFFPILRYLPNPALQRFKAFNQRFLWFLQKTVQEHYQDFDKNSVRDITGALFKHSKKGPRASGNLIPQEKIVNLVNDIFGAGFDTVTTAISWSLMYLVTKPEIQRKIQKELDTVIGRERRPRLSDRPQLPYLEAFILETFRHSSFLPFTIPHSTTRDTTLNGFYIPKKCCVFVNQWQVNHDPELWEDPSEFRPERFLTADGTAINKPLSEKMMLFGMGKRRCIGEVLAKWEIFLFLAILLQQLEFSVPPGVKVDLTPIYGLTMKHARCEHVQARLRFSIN

Cytochrome P450 2C19 = Cytochrome P450 2C19 (Homo sapiens, UniProt P33261); test: Cytochrome panel assay with activity outcomes. Panel member name: p450-cyp2c19 Compounds with AC50 equal or less than 10 uM are considered active; type: functional
Cytochrome P450 2C19, sequence (P33261 whole entry): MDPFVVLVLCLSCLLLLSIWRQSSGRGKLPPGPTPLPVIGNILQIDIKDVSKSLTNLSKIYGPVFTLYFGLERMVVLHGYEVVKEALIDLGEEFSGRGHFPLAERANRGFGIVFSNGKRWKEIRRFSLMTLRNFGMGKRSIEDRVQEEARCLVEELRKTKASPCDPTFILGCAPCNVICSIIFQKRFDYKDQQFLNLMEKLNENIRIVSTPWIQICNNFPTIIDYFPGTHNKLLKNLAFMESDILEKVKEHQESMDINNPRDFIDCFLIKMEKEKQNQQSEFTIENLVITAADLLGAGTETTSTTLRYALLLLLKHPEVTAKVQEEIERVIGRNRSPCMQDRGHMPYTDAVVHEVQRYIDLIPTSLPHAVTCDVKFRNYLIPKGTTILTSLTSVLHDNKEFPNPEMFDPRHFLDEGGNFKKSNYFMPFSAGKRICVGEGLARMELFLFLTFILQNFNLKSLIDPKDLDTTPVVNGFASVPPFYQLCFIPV

[4] = target: T2, Corticotropin-releasing factor receptor 2/Corticotropin-releasing factor-binding protein (Homo sapiens, UniProt P24387+Q13324); test: activators of CRF receptor 2 with binding protein – uHTS hits, confirmation (AID 602473); type: functional; settings: read-out: EC50_Mean
T2 sequence (Q13324 whole entry): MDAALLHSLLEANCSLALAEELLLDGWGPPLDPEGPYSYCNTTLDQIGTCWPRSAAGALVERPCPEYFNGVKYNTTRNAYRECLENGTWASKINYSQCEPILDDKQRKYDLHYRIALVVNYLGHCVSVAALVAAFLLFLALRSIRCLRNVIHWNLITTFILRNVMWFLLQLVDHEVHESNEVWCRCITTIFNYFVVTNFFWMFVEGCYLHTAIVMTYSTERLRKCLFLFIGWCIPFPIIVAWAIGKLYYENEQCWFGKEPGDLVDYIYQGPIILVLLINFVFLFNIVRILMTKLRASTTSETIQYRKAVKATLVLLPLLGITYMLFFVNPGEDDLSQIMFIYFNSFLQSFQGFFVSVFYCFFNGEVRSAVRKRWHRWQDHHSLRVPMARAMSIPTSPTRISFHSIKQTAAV
T2 sequence (P24387 whole entry): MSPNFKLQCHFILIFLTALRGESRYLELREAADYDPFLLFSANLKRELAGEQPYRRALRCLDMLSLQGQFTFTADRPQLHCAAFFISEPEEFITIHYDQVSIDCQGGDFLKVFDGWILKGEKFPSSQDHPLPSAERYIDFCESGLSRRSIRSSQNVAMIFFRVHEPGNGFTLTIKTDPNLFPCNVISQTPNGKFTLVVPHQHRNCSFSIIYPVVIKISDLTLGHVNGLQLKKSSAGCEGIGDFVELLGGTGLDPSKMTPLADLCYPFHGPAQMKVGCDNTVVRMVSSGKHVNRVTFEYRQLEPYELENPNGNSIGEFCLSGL

[5] = target: T3, Rac GTPase-activating protein 1 (Homo sapiens, UniProt Q9H0H5); test: blockers of MgcRacGAP-driven Rac1 GTP hydrolysis – biochemical, ADP Hunter fluorescence, primary and confirmatory, confirmation (AID 624330); type: functional
T3 sequence (Q9H0H5 whole entry): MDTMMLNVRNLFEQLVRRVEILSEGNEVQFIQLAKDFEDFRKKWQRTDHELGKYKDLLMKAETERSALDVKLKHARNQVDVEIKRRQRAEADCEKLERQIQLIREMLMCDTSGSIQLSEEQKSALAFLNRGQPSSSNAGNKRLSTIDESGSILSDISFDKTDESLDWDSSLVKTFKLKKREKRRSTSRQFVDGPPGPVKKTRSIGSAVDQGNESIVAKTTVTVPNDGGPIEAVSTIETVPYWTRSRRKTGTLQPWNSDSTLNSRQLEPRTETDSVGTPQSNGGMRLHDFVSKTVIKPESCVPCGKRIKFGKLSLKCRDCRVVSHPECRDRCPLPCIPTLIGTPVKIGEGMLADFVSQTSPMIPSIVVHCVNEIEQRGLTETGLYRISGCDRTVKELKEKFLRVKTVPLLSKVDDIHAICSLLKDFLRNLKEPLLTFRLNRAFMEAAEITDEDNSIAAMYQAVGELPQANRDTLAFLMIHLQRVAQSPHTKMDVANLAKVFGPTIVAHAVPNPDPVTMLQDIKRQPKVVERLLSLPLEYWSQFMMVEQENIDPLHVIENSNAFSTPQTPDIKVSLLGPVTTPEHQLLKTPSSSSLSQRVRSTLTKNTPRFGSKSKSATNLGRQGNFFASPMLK

[6] = system: Streptococcus sp. 'group A'; test: Streptococcus pyogenes SK(-)GAS viability under kanamycin – luminescence, BacTiterGlo, confirmation, counter-screen for streptokinase expression inhibitor project, dose response (AID 1900); type: functional, organism-based
Streptococcus = test: GAS UMAA2166 growth inhibition – luminescence, BacTiterGlo, counter-screen for streptokinase expression inhibitor project, dose response (AID 1915); type: functional, organism-based;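 also: potency for reduction of bacterial viability or growth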
[7] = Luminescence Cell-Based Dose Response HTS to Identify Activators of Luciferase Translation or Activity in H4 […] Cells. [Related pubchem assays: 1829 (Project Summary), 1814 (Primary HTS)]; type: functional
H4 = test: Luminescence Cell-Based Dose Response HTS to Identify Activators of 5'UTR Stem-Loop Driven Prion Protein mRNA Translation in H4 Neuroglioblastoma Cells. [Related pubchem assays: 1829 (Project Summary), 1814 (Primary HTS)]; type: functional; settings: Homo sapiens

Cc1ccc(S(=O)(=O)NCCc2cc3ccc(C)cc3nc2O)cc1
AC50 [1]: > 70 µM (inactive)

CC1CCC2CCCCC2N1C(=O)c1cc([N+](=O)[O-])cc([N+](=O)[O-])c1 (stereo not drawn)
EC50 [2]: 0.212 µM (active)
EC50 [3]: > 60 µM (not active)

CCN(Cc1ccncc1)C(=O)c1cc(COc2c(C)cccc2C)on1
EC50 [2]: 1.42 µM (active)
EC50 [3]: > 60 µM (not active)

O=C(Nc1ccccc1)N1CC[C@@]2(CCCN(C(=O)c3ccco3)C2)C1
AC50 (Cytochrome P450 1A2): 10 µM (inconclusive)

CCCCn1cnc2c(SC)ncnc21
AC50 (Cytochrome P450 1A2): 3.16 µM (inconclusive)

C[C@H](CCC(=O)O)[C@H]1CC[C@]2(C)[C@@H]3C(=O)C[C@H]4C(C)(C)[C@@H](O)CC[C@]4(C)[C@H]3C(=O)C[C@@]12C
AC50 (Cytochrome P450 2C19): inconclusive

Cc1ccc(C(=O)Nc2c(C#N)c(C)c(C)n2Cc2ccccc2)cc1
AC50 (Cytochrome P450 2C19; read-out: AC50): 0.447 µM (inconclusive)

CN(C)C(=O)c1ccc(-c2cc(Nc3ccccc3)ncn2)cc1
AC50 (Cytochrome P450 1A2): 12.6 µM (inconclusive)

CCOc1ccccc1N(C)C(=O)c1cc2c(=O)n(CC)c3ccccc3c2s1
EC50 [2]: 1.43 µM (active)
EC50 [3]: > 60 µM (not active)

CCC(=O)Nc1cccc(-n2nnnc2SCC(=O)N2CCCCC2)c1
EC50 [4]: 11.7 µM (active)

COc1ccc(CN2CCC(N3CC(C)OC(C)C3)CC2)c(OC)c1OC (stereo not drawn)
IC50 [5]: 66 µM (active)

Cc1ccccc1C1c2[nH]c3ccccc3c2C[C@H]2C(=O)N(C3CCN(Cc4ccccc4)CC3)CC(=O)N12 (stereo partly drawn)
EC50 [2]: 1.98 µM (active)
EC50 [3]: 13.3 µM (active)

Cc1ccc(S(=O)(=O)C(C#N)c2nc3ccccc3nc2N2CCCC2)cc1 (stereo not drawn)
EC50 [4]: > 53 µM (inactive)

O=C1[C@H]2C(c3ccccc3)=NN(c3ccccc3)[C@H]2C(=O)N1c1ccccc1
EC50 [6]: 0.614 µM (active)
EC50 (Streptococcus): 3.62 µM (active)

COc1ccc(CN2CCN(Cc3ccc(Br)cc3)CC2)c(OC)c1OC
IC50 [5]: 70.2 µM (active)

C1CCC(CNc2c3c(nc4nnnn24)CCCC3)CC1
EC50 [2]: 1.87 µM (active)
EC50 [3]: > 60 µM (not active)

CCC(=O)Nc1ccc2nc(C3CC3)n(Cc3ccc(C(C)(C)C)cc3)c(=O)c2c1
EC50 [2]: 0.325 µM (active)
EC50 [3]: > 60 µM (not active)

S=C(NCCN1CCOCC1)Nc1ccc(Nc2ccccc2)cc1
IC50 [5]: 129 µM (active)

CCn1cc(CN2CCCC(C(=O)c3cccc(OC)c3)C2)c(C)n1 (stereo not drawn)
EC50 [2]: 0.426 µM (active)
EC50 [3]: > 60 µM (inconclusive)

CCC(CC)C(=O)NC1CCSC1=O (stereo not drawn)
AC50 (Cytochrome P450 2C19): inconclusive
AC50 (Cytochrome P450 1A2): 39.8 µM (inconclusive)

Cc1ccc(Cc2cnc(N3C(=N)SC(c4ccccc4)C3=O)s2)cc1 (stereo not drawn)
EC50 [6]: 0.181 µM (active)
EC50 (Streptococcus): 5.16 µM (active)

COC(=O)N1N=C(c2ccc(Br)cc2)CC1(O)C(F)(F)F (stereo not drawn)
EC50 [7]: 2.85 µM (active)
EC50 (H4): 0.745 µM (active)

OCCCCNc1cccc2ccccc12
IC50 [5]: 22.8 µM (active)

CCC(=O)Nc1ccc(Nc2ccccc2)cc1
IC50 [5]: 53.6 µM (active)

O=C(NC1CCN(Cc2ccccc2)CC1)C1CCN(S(=O)(=O)c2ccccc2)CC1
EC50 [2]: 0.424 µM (active)
EC50 [3]: > 60 µM (not active)

Nc1nc(NCCOCCO)nc(N2CCCCCC2)c1[N+](=O)[O-]
EC50 [6]: 5.73 µM (active)
EC50 (Streptococcus): 8.6 µM (active)

O=C(NCCCN1CCOCC1)c1ccc(Sc2ccc(F)cc2)c([N+](=O)[O-])c1
EC50 [2]: 1.01 µM (active)
EC50 [3]: > 60 µM (inconclusive)

CCC1CCCCN1CC(=O)c1c(C)[nH]c2ccccc12 (stereo not drawn)
EC50 [4]: 22.6 µM (active)

Cc1[nH]c2ccccc2c1SCc1nnc(SCc2ccc(Cl)cc2)n1C
EC50 [2]: 3.54 µM (active)
EC50 [3]: 12.3 µM (active)

COc1cc(CN2CCCC(CO)(Cc3cccc(Cl)c3)C2)cc2c1OCO2 (stereo not drawn)
EC50 [2]: 0.419 µM (active)
EC50 [3]: > 60 µM (not active)

C[C@@H]1CCc2cc(F)cc3c(=O)c(C(=O)O)cn1c23
AC50 (Cytochrome P450 1A2): 12.6 µM (inconclusive)

Cc1c(NC(=O)c2ccc(-c3ccc([N+](=O)[O-])cc3Cl)o2)c(=O)n(-c2ccccc2)n1C
EC50 [2]: 0.839 µM (active)
EC50 [3]: > 60 µM (inconclusive)

Cc1cc(C)c2c(N)c(C(=O)c3ccccc3)sc2n1
EC50 [2]: 0.225 µM (active)
EC50 [3]: > 60 µM (not active)

O=C(Nc1cccc(F)c1)N1CC=C(c2ccc(Cl)cc2)CC1
EC50 [2]: 1.48 µM (active)
EC50 [3]: > 60 µM (not active)

CC1=NN(c2ccccc2)C(=O)C1C(=O)c1ccc(Cl)cc1 (stereo not drawn)
AC50 (Cytochrome P450 2C19; read-out: AC50): 39.8 µM (inconclusive)

O=C(O)C1C2C=CC3(CN(Cc4ccccn4)C(=O)C13)O2 (stereo not drawn)
AC50 (Cytochrome P450 2C19): inconclusive

CN1CCN(c2ncc3nc(-c4cccs4)c(=O)n(CCc4ccccc4)c3n2)CC1
AC50 (Cytochrome P450 1A2): 2.51 µM (inconclusive)

COC(=O)c1c(-c2ccc3ccccc3c2)csc1NC(=O)Cc1ccc(OC)c(OC)c1
AC50 (Cytochrome P450 1A2): 11.2 µM (inconclusive)

C[C@@]12CC[C@H](O)C[C@@H]1CC[C@@H]1[C@@H]2CC[C@@]2(C)[C@@H](C3=CC(=O)OC3)[C@H](O)C[C@]12O
AC50 (Cytochrome P450 2C19): inconclusive

Nc1ccc(N2CCCC2)c(S(=O)(=O)Nc2cccc(C(F)(F)F)c2)c1
IC50 [5]: 120 µM (active)

CCOC(=O)Nc1ccc(OC(=O)Oc2ccc(NC(=O)OCC)cc2)cc1
IC50 [5]: 31.8 µM (active)

COc1cc(/C=N/Nc2nc3ccccc3s2)ccc1O
IC50 [5]: 69.6 µM (active)

CC(=O)Nc1sc2c(c1C(N)=O)CCCC2
AC50 (Cytochrome P450 2C19; read-out: AC50): 35.5 µM (inconclusive)

COc1ccc(CNc2ccc(N3CCN(C(C)=O)CC3)cc2)cc1OC
IC50 [5]: 12 µM (active)

Cc1ccn2c(S)nnc2c1
IC50 [5]: 19.4 µM (active)

COc1cccc(/C=N/N2CCN(c3ccncc3S(=O)(=O)N3CCCCC3)CC2)c1
EC50 [2]: 1.71 µM (active)
EC50 [3]: > 60 µM (not active)

CCOc1ccccc1/C=N\Nc1cnn(Cc2ccccc2)c(=O)c1Cl
EC50 [2]: 3.38 µM (active)
EC50 [3]: > 60 µM (inconclusive)
